Source: ChEMBL document CHEMBL1671859, “bla(IMP-4) in different genetic contexts in Enterobacteriaceae isolates from Australia” (2008)
≈ marks a conversion by molar mass, not a printed value.

What was measured:
Format in all cases: functional
Klebsiella pneumoniae [1] = assay: Antibacterial activity against Klebsiella pneumoniae Kp2730 transconjugant harboring IncL/M plasmid and blaIMP-4-qacG2-aacA4-catB3 and dfrA12-orfF-aadA2 arrays by Etest method
Enterobacter cloacae [2] = assay: Antibacterial activity against Enterobacter cloacae El3518 transconjugant harboring IncL/M plasmid and blaIMP-4-qacG2-aacA4-catB3 array by Etest method
Citrobacter amalonaticus [3] = assay: Antibacterial activity against Citrobacter amalonaticus Ca3927 transconjugant harboring IncL/M plasmid and blaIMP-4-qacG2-aacA4-catB3 array by Etest method
Enterobacter cloacae [4] = assay: Antibacterial activity against Enterobacter cloacae El1573 transconjugant harboring IncL/M plasmid and blaIMP-4-qacG2-aacA4-catB3 array by Etest method
Morganella morganii [5] = assay: Antibacterial activity against Morganella morganii Mm38009 transconjugant harboring IncL/M plasmid and blaIMP-4-qacG2-aacA4-catB3 array by Etest method
Klebsiella pneumoniae [6] = assay: Antibacterial activity against Klebsiella pneumoniae Kp38045 transconjugant harboring IncL/M plasmid and blaIMP-4-qacG2-aacA4-catB3 array by Etest method
Escherichia coli [7] = assay: Antibacterial activity against Escherichia coli Ec9381 transconjugant harboring IncL/M plasmid and blaIMP-4-qacG2-aacA4-catB3 array by Etest method
Morganella morganii [8] = assay: Antibacterial activity against Morganella morganii Mm1229 transconjugant harboring IncL/M plasmid and blaIMP-4-qacG2-aacA4-catB3 array by Etest method
Klebsiella pneumoniae [9] = assay: Antibacterial activity against Klebsiella pneumoniae Kp3799 transconjugant harboring IncL/M plasmid and blaIMP-4-qacG2-aacA4-catB3 array by Etest method
Klebsiella oxytoca [10] = assay: Antibacterial activity against Klebsiella oxytoca Ko1156 transconjugant harboring IncL/M plasmid and blaIMP-4-qacG2-aacA4-catB3 array by Etest method
Escherichia coli [11] = assay: Antibacterial activity against Escherichia coli Ec158 transconjugant harboring IncA/C plasmid and blaIMP-4-qacG2-aacA4-catB3 array by Etest method
Citrobacter koseri [12] = assay: Antibacterial activity against Citrobacter koseri Ck211 transconjugant harboring IncA/C plasmid and blaIMP-4-qacG2-aacA4-catB3 array by Etest method
Klebsiella oxytoca [13] = assay: Antibacterial activity against Klebsiella oxytoca Ko238 transconjugant harboring IncA/C plasmid and blaIMP-4-qacG2-aacA4-catB3 array by Etest method
Citrobacter youngae = assay: Antibacterial activity against Citrobacter youngae CyB38 transconjugant harboring blaIMP-4-qacG2-aacA4-catB3 array by Etest method
Klebsiella pneumoniae [14] = assay: Antibacterial activity against Klebsiella pneumoniae isolate Kp1239 harboring IncL/M plasmid and blaIMP-4-qacG2-aacA4-catB3 array by Etest method
Klebsiella pneumoniae [15] = assay: Antibacterial activity against Klebsiella pneumoniae isolate Kp2730 harboring IncL/M plasmid and blaIMP-4-qacG2-aacA4-catB3 and dfrA12-orfF-aadA2 arrays by Etest method
Enterobacter cloacae [16] = assay: Antibacterial activity against Enterobacter cloacae isolate El3280 harboring IncL/M plasmid and blaIMP-4-qacG2-aacA4-catB3 array by Etest method
Enterobacter cloacae [17] = assay: Antibacterial activity against Enterobacter cloacae isolate El3518 harboring IncL/M plasmid and blaIMP-4-qacG2-aacA4-catB3 array by Etest method
Citrobacter amalonaticus [18] = assay: Antibacterial activity against Citrobacter amalonaticus isolate Ca3927 harboring IncL/M plasmid and blaIMP-4-qacG2-aacA4-catB3 array by Etest method
Serratia marcescens [19] = assay: Antibacterial activity against Serratia marcescens isolate Sm2723 harboring IncL/M plasmid and blaIMP-4-qacG2-aacA4-catB3 array by Etest method
Klebsiella pneumoniae [20] = assay: Antibacterial activity against Klebsiella pneumoniae isolate Kp7564 harboring IncL/M plasmid and blaIMP-4-qacG2-aacA4-catB3 array by Etest method
Citrobacter amalonaticus [21] = assay: Antibacterial activity against Citrobacter amalonaticus isolate Ca38009 harboring IncL/M plasmid and blaIMP-4-qacG2-aacA4-catB3 array by Etest method
Morganella morganii [22] = assay: Antibacterial activity against Morganella morganii isolate Mm38009 harboring IncL/M plasmid and blaIMP-4-qacG2-aacA4-catB3 array by Etest method
Klebsiella pneumoniae [23] = assay: Antibacterial activity against Klebsiella pneumoniae isolate Kp38045 harboring IncL/M plasmid and blaIMP-4-qacG2-aacA4-catB3 array by Etest method
Klebsiella pneumoniae [24] = assay: Antibacterial activity against Klebsiella pneumoniae isolate Kp3799 harboring IncL/M plasmid and blaIMP-4-qacG2-aacA4-catB3 array by Etest method
Klebsiella oxytoca [25] = assay: Antibacterial activity against Klebsiella oxytoca isolate Ko0426 harboring IncL/M plasmid and blaIMP-4-qacG2-aacA4-catB3 array by Etest method
Klebsiella oxytoca [26] = assay: Antibacterial activity against Klebsiella oxytoca isolate Ko1156 harboring IncL/M plasmid and blaIMP-4-qacG2-aacA4-catB3 array by Etest method
Escherichia coli [27] = assay: Antibacterial activity against Escherichia coli isolate Ec158 harboring IncA/C plasmid and blaIMP-4-qacG2-aacA4-catB3 array by Etest method
Klebsiella pneumoniae [28] = assay: Antibacterial activity against Klebsiella pneumoniae isolate Kp149 harboring IncA/C plasmid and blaIMP-4-qacG2-aacA4-catB3 array by Etest method
Serratia marcescens [29] = assay: Antibacterial activity against Serratia marcescens isolate Sm201 harboring IncA/C plasmid and blaIMP-4-qacG2-aacA4-catB3 array by Etest method
Serratia marcescens [30] = assay: Antibacterial activity against Serratia marcescens isolate Sm203 harboring IncA/C plasmid and blaIMP-4-qacG2-aacA4-catB3 array by Etest method
Klebsiella pneumoniae [31] = assay: Antibacterial activity against Klebsiella pneumoniae isolate Kp211 harboring IncA/C plasmid and blaIMP-4-qacG2-aacA4-catB3 array by Etest method
Escherichia coli [32] = assay: Antibacterial activity against Escherichia coli isolate Ec211 harboring IncA/C plasmid and blaIMP-4-qacG2-aacA4-catB3 array by Etest method
Klebsiella pneumoniae [33] = assay: Antibacterial activity against Klebsiella pneumoniae isolate Kp266 harboring IncA/C plasmid and blaIMP-4-qacG2-aacA4-catB3 array by Etest method
Citrobacter koseri [34] = assay: Antibacterial activity against Citrobacter koseri isolate Ck211 harboring IncA/C plasmid and blaIMP-4-qacG2-aacA4-catB3 array by Etest method
Enterobacter cloacae [35] = assay: Antibacterial activity against Enterobacter cloacae isolate El216 harboring IncA/C plasmid and blaIMP-4-qacG2-aacA4-catB3 array by Etest method
Escherichia coli [36] = assay: Antibacterial activity against Escherichia coli isolate Ec221 harboring IncA/C plasmid and blaIMP-4-qacG2-aacA4-catB3 array by Etest method
Klebsiella oxytoca [37] = assay: Antibacterial activity against Klebsiella oxytoca isolate Ko238 harboring IncA/C plasmid and blaIMP-4-qacG2-aacA4-catB3 array by Etest method
Klebsiella pneumoniae [38] = assay: Antibacterial activity against Klebsiella pneumoniae isolate Kp204 harboring IncA/C plasmid and blaIMP-4-qacG2-aacA4-catB3 array by Etest method
Serratia marcescens [39] = assay: Antibacterial activity against Serratia marcescens isolate Sm265 harboring IncA/C plasmid and blaIMP-4-qacG2-aacA4-catB3 array by Etest method
Acinetobacter = assay: Antibacterial activity against Acinetobacter isolate A74510 harboring blaIMP-4-qacG2-aacA4-catB3 array by Etest method
Acinetobacter baumannii = assay: Antibacterial activity against Acinetobacter baumannii isolate AbN450 harboring […]-qacG2-aacA4-catB3 array by Etest method

C[C@@H](O)[C@H]1C(=O)N2C(C(=O)O)=C(SCCNC=N)C[C@H]12 [IMIPENEM ANHYDROUS]
MIC (Klebsiella pneumoniae [1]): 2 µg/mL (≈ 6.68 µM) | MIC (Enterobacter cloacae [2]): 2 µg/mL (≈ 6.68 µM) | MIC (Citrobacter amalonaticus [3]): ≤ 1 µg/mL | MIC (Enterobacter cloacae [4]): 2 µg/mL (≈ 6.68 µM) | MIC (Morganella morganii [5]): 2 µg/mL (≈ 6.68 µM) | MIC (Klebsiella pneumoniae [6]): 2 µg/mL (≈ 6.68 µM) | MIC (Escherichia coli [7]): ≤ 1 µg/mL | MIC (Morganella morganii [8]): 2 µg/mL (≈ 6.68 µM) | MIC (Klebsiella pneumoniae [9]): 2 µg/mL (≈ 6.68 µM) | MIC (Klebsiella oxytoca [10]): ≤ 1 µg/mL | MIC (Escherichia coli [11]): 2 µg/mL (≈ 6.68 µM) | MIC (Citrobacter koseri [12]): ≤ 1 µg/mL | MIC (Klebsiella oxytoca [13]): 2 µg/mL (≈ 6.68 µM) | MIC (Citrobacter youngae): 4 µg/mL (≈ 13.4 µM) | MIC (Klebsiella pneumoniae [14]): > 32 µg/mL | MIC (Klebsiella pneumoniae [15]): 8 µg/mL (≈ 26.7 µM) | MIC (Enterobacter cloacae [16]): 3 µg/mL (≈ 10 µM) | MIC (Enterobacter cloacae [17]): 3 µg/mL (≈ 10 µM) | MIC (Citrobacter amalonaticus [18]): 2 µg/mL (≈ 6.68 µM) | MIC (Serratia marcescens [19]): 1.5 µg/mL (≈ 5.01 µM) | MIC (Klebsiella pneumoniae [20]): 7 µg/mL (≈ 23.4 µM) | MIC (Citrobacter amalonaticus [21]): 1.5 µg/mL (≈ 5.01 µM) | MIC (Morganella morganii [22]): 3 µg/mL (≈ 10 µM) | MIC (Klebsiella pneumoniae [23]): 0.75 µg/mL (≈ 2.51 µM) | MIC (Klebsiella pneumoniae [24]): 4 µg/mL (≈ 13.4 µM) | MIC (Klebsiella oxytoca [25]): 4 µg/mL (≈ 13.4 µM) | MIC (Klebsiella oxytoca [26]): 0.75 µg/mL (≈ 2.51 µM) | MIC (Escherichia coli [27]): ≤ 1 µg/mL | MIC (Klebsiella pneumoniae [28]): 8 µg/mL (≈ 26.7 µM) | MIC (Serratia marcescens [29]): 8 µg/mL (≈ 26.7 µM) | MIC (Serratia marcescens [30]): 4 µg/mL (≈ 13.4 µM) | MIC (Klebsiella pneumoniae [31]): 2 µg/mL (≈ 6.68 µM) | MIC (Escherichia coli [32]): 4 µg/mL (≈ 13.4 µM) | MIC (Klebsiella pneumoniae [33]): 8 µg/mL (≈ 26.7 µM) | MIC (Citrobacter koseri [34]): ≤ 1 µg/mL | MIC (Enterobacter cloacae [35]): > 8 µg/mL | MIC (Escherichia coli [36]): 8 µg/mL (≈ 26.7 µM) | MIC (Klebsiella oxytoca [37]): 8 µg/mL (≈ 26.7 µM) | MIC (Klebsiella pneumoniae [38]): 8 µg/mL (≈ 26.7 µM) | MIC (Serratia marcescens [39]): > 8 µg/mL | MIC (Acinetobacter): > 8 µg/mL | MIC (Acinetobacter baumannii): > 8 µg/mL
